# From PubChem BioAssay (NCI)
# “And” between values parts separate entries of the source, which are not always exact repeats. Equal values may be shown once.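 Five concentrations, 48 hours, 96-well plates. GI50 = concentration required for 50% inhibition of growth. TGI: total growth inhibition.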
# Tested on: MDA-MB-468 breast
# Assay: NCI anticancer screen, dose series, 48 h
SMILES,GI50,TGI
N#CC1=C(N)Oc2cc3c(cc2C1c1cccs1)OCO3 (configuration not stated),0.219 µM,3.03 µM
CN1CCN(Cc2ccc(-c3cc4ncnc(Nc5ccc(OCc6cccc(F)c6)c(Cl)c5)c4s3)o2)CC1,0.292 µM,3.22 µM
O=C(/C=C/c1ccco1)c1ccc(Nc2nc(Nc3ccc(F)cc3)nc(Nc3ccc(Cl)cc3)n2)cc1,22.8 µM,> 100 µM
CC(C)(C)Nc1nc2c(OCCc3ccccc3)cccn2c1-c1ccccc1Cl,2.5 µM,9.17 µM
CCCCCCCCCCCCN1C(C)=CS/C1=C\C=C\c1scc(C)[n+]1CCCCCCCCCCCC,0.251 µM,1.39 µM
O=[N+]([O-])c1ccc(N2CCN(Cc3ccccc3)CC2)c2c1no[n+]2[O-],1.12 µM,2.68 µM
CC/C=C\C[C@H](O)C/C=C1/C(=O)C=C[C@@H]1C/C=C\CCCC(=O)NC(C)C,1.67 µM,3.89 µM
CS(=O)(=O)c1ccc(Oc2cc(F)cc(C#N)c2)c2c1[C@H](O)[C@H](F)[C@@H]2F,> 100 µM,> 100 µM
CNc1ccccc1C(=O)N/N=C/C=C/c1ccccc1,0.503 µM,15.1 µM
COc1ccc(C(=O)Cn2c(C(=O)c3ccc(OC)cc3)nc3ccccc32)cc1,0.431 µM,> 22.8 µM
COc1cccc(-c2nn(-c3ccccc3)cc2-c2ccnc(NCCNS(=O)(=O)c3ccc(Cl)cc3)c2)c1,3.9 µM,64.6 µM
OC(c1cc2cc(Br)ccc2c2cc(Br)ccc12)C1CCCCN1 (configuration not stated),1.63 µM,3.08 µM
Nc1c(C(=O)Nc2ccccc2)sc2nc3c(cc12)CCCCCC3,0.312 µM,3.73 µM
O=C(Nc1ccc(-c2nc3cc4ccccc4cc3[nH]2)cc1)c1cccc(Br)c1,2.41 µM,6.54 µM
O=C1/C(=C/c2cccc([N+](=O)[O-])c2)COc2ccc(O)c(O)c21,1.33 µM,3.12 µM
Oc1c(CN2CCC(N3CCOCC3)CC2)cc(Cc2cc(CN3CCC(N4CCOCC4)CC3)c(O)c3ncccc23)c2cccnc12,1.7 µM,6.6 µM
Cc1ccc(Nc2nc(NCCO)c3ccccc3n2)cc1C,0.402 µM,3.13 µM
COc1ccc(CN2C(=O)/C(=C\c3cc(OC)c(OC)c(OC)c3)c3cc(OC)ccc32)cc1,1.94 µM,4.52 µM

SMILES,GI50,TGI
CCN(CC)c1ccc(/C=N/NC(=O)c2ccc(S(N)(=O)=O)cc2)cc1,0.376 µM,3.66 µM
COc1cc(/C=C(/C)[N+](=O)[O-])ccc1O,1.58 µM and 1.78 µM,3.2 µM and 3.62 µM
O=[N+]([O-])c1cnc(Sc2ccncn2)c([N+](=O)[O-])c1,1.72 µM,3.55 µM
O=C(Nc1ccc(S(=O)(=O)Nc2nccs2)cc1)c1cccnc1Nc1cccc(Cl)c1,13.9 µM,52.2 µM
Cc1ccc(S(=O)ON2CCC(C(=O)O)(c3ccccc3)CC2)cc1 (configuration not stated),> 100 µM,> 100 µM
COC(=O)/C=C/c1cc(O)c2c(c1)C(C(=O)OC)C(c1ccc(O)c(O)c1)O2 (configuration not stated),0.521 µM and 0.646 µM,9.94 µM and 11.3 µM
CC(C)C[C@H](NC(=O)[C@H](Cc1ccccc1)n1ccc(N2CCCCC2)cc1=O)B(O)O,0.264 µM,0.745 µM
CC(C)C[C@@H](NC(=O)[C@@H](Cc1ccccc1)NC(=O)c1cnccn1)B1O[C@H]2[C@H](O)[C@@H](C(=O)NCCCC[C@@H]3NC(=O)[C@@H](Cc4ccccc4)NC(=O)[C@H](CC(=O)O)NC(=O)CNC(=O)[C@H](CCCN=C(N)N)NC3=O)O[C@@H](CN)[C@H]2O1,0.00293 µM and 0.005 µM,0.00906 µM and 0.00535 µM
CCNC(=O)C[C@@H]1N=C(c2ccc(Cl)cc2)c2cc(OC)ccc2-n2c(C)nnc21,2.88 µM,> 100 µM
Cn1ccnc1C(=O)/C=C/c1ccc(CC(=O)Nc2ccc(Cl)cc2)cc1,1.03 µM,11.3 µM
Cn1c(C(N)=O)cc2c1-c1nc(Nc3ccccc3)ncc1CCC2,3.52 µM,15 µM
C=C1C(=O)O[C@H]2[C@H]1CC/C(COC(=O)C(=O)c1c[nH]c3ccccc13)=C\CC[C@@]1(C)O[C@@H]21,1.98 µM,3.84 µM
CC(=O)Oc1ccccc1C(=O)Nc1ccc(C(=O)/C=C/c2ccncc2)cc1,22.3 µM,98 µM
O=C(Nc1ccc(Cl)c([N+](=O)[O-])c1)Nc1nc2ccccc2s1,3.53 µM,9.76 µM
CCn1c(=O)c(-c2ccn[nH]2)cc2c(C)nc(N)nc21,0.861 µM,6.25 µM
COc1ccc(C(=O)Cn2c(C(=O)c3ccc(Cl)cc3)nc3ccccc32)cc1,6.13 µM,> 100 µM
CCN1C(=O)C/C(=C\C(C)=O)Nc2ccccc21,> 100 µM,> 100 µM
CCc1ccc(-c2nnc(COc3ccc(-c4nc5ccc(C)cc5[nH]4)cc3OC)o2)cc1,3.26 µM,16.3 µM
